For assay [1], the target named is T1, Alpha-2C adrenergic receptor (Homo sapiens, UniProt P18825).
T1 sequence (P18825 whole entry): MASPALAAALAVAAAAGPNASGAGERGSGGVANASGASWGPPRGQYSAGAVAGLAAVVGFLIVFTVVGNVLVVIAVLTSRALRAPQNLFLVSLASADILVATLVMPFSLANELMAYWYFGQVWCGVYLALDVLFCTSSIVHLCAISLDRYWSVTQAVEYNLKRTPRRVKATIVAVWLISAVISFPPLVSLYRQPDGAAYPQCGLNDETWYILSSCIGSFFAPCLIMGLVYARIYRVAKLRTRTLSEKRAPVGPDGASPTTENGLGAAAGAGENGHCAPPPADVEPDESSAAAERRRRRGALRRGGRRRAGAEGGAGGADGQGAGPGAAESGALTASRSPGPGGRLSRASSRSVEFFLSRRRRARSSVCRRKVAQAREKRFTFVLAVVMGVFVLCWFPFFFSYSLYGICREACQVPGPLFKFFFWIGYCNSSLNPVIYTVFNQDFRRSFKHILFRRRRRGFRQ
It counts as functional.

A further assay has as its target T2, B2 bradykinin receptor (Homo sapiens, UniProt P30411).
T2 sequence (P30411 whole entry): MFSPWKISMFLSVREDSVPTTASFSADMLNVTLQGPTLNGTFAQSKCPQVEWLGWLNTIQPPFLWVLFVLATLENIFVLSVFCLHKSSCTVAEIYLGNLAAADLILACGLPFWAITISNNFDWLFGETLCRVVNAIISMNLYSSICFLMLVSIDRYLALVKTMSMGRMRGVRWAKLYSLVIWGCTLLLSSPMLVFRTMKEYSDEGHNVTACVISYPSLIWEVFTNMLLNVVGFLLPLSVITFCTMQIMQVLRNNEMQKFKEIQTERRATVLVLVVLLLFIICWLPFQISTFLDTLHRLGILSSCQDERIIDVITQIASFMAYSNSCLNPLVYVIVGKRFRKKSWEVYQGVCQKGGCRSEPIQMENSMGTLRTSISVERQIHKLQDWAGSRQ

Assay [2] addresses Voltage-dependent L-type calcium channel subunit alpha-1C (Rattus norvegicus, UniProt P22002). It counts as functional.
Assay [3] concerns the target T3, Cholecystokinin receptor type A (Homo sapiens, UniProt P32238).
T3 sequence (P32238 whole entry): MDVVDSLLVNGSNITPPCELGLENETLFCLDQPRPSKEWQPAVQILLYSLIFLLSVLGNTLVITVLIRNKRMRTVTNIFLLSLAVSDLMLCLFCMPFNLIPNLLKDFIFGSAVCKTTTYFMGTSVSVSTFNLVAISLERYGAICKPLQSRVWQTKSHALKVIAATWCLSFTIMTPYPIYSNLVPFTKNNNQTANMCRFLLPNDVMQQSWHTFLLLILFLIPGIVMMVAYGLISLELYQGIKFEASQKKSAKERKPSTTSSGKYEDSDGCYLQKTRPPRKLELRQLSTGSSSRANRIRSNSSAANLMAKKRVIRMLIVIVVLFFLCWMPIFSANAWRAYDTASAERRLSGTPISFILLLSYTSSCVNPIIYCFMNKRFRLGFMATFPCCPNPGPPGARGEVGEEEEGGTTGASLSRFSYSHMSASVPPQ

The target in assay [4] is Neuronal acetylcholine receptor subunit alpha-4 (Homo sapiens, UniProt P43681).
The target in the next assay is Cannabinoid receptor 1 (Homo sapiens, UniProt P21554). It counts as functional, cell-based.
Assay [5] concerns the target T4, Gamma-aminobutyric acid receptor subunit alpha-1 (Rattus norvegicus, UniProt P62813).
The target in assay [6] is T4, Gamma-aminobutyric acid receptor subunit alpha-1. It counts as functional.
Assay [7] has as its target 5-hydroxytryptamine receptor 2B (Homo sapiens, UniProt P41595). It counts as functional, cell-based.
Assay [8] concerns the target T5, 5-hydroxytryptamine receptor 2C (Homo sapiens, UniProt P28335).
T5 sequence (P28335 whole entry): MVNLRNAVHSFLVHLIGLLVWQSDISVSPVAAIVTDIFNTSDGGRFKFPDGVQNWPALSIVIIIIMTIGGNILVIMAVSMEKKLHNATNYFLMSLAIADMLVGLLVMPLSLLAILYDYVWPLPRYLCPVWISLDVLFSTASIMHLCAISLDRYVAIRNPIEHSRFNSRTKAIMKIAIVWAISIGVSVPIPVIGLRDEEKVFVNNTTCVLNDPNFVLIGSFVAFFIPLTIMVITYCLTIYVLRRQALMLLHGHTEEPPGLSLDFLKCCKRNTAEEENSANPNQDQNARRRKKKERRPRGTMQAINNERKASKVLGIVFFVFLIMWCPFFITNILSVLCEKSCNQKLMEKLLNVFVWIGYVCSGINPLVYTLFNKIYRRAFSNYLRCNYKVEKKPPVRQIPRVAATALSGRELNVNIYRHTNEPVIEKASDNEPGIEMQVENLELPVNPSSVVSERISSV

Another assay has as its target Melanocortin receptor 3 (Homo sapiens, UniProt P41968).
Assay [9] deals with Sodium-dependent dopamine transporter (Homo sapiens, UniProt Q01959).
Assay [10] addresses cGMP-inhibited 3',5'-cyclic phosphodiesterase 3A (Homo sapiens, UniProt Q14432). In kind it is functional.
The target of the next assay is Histamine H3 receptor (Homo sapiens, UniProt Q9Y5N1).

The results in this text go back to ChEMBL document CHEMBL5291721, “A preclinical secondary pharmacology resource illuminates target-adverse drug reaction associations of marketed drugs” (Nat Commun, 2023).
Note: assay procedure not described here.

Chain of Melanocortin receptor 3 (P41968 whole entry): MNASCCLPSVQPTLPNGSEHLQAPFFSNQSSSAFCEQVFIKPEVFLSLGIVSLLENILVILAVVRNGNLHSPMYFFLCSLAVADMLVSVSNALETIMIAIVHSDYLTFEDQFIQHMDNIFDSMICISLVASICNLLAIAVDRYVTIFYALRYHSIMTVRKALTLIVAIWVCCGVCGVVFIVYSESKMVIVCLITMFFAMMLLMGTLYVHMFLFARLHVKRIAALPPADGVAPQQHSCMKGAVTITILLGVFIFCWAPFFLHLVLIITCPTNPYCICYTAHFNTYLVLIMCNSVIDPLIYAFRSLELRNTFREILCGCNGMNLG
Chain of cGMP-inhibited 3',5'-cyclic phosphodiesterase 3A (Q14432 whole entry): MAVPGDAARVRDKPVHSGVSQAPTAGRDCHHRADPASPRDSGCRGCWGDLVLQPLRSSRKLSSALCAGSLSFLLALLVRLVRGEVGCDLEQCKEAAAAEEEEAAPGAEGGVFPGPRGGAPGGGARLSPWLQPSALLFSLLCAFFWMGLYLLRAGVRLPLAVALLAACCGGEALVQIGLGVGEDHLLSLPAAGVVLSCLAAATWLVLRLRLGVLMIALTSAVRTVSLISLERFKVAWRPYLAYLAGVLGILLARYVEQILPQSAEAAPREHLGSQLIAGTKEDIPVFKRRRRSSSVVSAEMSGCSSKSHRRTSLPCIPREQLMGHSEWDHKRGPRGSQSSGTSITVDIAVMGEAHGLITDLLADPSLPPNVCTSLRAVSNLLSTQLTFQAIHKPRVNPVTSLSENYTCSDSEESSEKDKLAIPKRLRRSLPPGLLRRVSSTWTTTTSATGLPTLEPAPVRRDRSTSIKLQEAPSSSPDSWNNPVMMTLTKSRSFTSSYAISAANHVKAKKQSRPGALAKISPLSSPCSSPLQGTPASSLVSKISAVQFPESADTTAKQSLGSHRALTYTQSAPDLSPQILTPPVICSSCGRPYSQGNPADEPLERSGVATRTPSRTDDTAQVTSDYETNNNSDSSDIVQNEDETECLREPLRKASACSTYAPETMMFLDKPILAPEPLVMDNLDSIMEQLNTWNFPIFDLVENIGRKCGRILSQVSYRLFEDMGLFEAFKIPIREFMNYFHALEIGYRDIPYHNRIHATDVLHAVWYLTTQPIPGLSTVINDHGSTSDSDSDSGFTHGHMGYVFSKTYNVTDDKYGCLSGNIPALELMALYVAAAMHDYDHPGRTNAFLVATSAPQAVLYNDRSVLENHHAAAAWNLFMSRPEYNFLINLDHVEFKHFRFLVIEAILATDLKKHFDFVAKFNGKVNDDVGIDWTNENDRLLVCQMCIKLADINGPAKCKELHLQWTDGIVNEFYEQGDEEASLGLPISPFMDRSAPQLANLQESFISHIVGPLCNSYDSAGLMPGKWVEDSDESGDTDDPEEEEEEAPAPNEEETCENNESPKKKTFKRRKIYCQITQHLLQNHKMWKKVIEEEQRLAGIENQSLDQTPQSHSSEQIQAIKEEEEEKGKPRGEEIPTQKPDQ
Chain of Histamine H3 receptor (Q9Y5N1 whole entry): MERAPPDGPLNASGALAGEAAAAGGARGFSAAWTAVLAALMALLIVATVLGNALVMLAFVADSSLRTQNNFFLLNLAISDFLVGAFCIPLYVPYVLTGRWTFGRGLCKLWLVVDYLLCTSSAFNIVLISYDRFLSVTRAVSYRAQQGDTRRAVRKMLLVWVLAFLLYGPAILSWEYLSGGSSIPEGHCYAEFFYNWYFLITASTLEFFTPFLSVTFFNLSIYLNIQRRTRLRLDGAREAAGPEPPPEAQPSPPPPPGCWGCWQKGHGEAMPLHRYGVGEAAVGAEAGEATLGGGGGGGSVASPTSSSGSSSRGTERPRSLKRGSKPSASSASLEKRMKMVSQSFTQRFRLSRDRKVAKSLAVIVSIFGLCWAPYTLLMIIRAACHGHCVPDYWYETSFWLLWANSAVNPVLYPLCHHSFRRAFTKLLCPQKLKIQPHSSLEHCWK
Chain of 5-hydroxytryptamine receptor 2B (P41595 whole entry): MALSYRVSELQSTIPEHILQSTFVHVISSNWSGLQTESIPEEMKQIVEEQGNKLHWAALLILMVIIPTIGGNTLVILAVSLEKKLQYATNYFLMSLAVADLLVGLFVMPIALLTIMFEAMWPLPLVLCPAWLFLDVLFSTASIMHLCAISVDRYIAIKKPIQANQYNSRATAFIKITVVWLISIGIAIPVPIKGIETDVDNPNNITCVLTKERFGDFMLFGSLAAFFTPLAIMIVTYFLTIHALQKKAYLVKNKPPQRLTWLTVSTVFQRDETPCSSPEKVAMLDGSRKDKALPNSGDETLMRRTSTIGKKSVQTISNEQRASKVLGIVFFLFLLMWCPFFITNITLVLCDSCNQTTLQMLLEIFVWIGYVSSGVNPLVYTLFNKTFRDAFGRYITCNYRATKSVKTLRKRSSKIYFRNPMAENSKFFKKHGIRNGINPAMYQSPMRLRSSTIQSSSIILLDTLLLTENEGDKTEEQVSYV
Chain of Sodium-dependent dopamine transporter (Q01959 whole entry): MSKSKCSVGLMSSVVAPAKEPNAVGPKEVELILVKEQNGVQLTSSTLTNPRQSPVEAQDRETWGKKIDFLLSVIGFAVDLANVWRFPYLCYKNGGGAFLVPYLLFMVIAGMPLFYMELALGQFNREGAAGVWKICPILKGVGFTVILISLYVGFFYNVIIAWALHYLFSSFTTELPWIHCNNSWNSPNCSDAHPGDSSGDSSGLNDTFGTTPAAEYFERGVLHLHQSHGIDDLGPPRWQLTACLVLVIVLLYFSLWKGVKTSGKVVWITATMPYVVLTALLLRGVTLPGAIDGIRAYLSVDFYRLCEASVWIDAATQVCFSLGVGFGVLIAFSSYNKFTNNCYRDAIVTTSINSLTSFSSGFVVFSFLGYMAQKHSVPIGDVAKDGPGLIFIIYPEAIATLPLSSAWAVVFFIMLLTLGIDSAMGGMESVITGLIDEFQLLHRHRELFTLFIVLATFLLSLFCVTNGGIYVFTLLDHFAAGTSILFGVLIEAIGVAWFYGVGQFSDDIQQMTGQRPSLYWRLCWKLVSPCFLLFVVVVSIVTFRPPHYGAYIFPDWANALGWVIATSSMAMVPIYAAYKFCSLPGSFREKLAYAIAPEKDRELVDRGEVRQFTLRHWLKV
Chain of Neuronal acetylcholine receptor subunit alpha-4 (P43681 whole entry): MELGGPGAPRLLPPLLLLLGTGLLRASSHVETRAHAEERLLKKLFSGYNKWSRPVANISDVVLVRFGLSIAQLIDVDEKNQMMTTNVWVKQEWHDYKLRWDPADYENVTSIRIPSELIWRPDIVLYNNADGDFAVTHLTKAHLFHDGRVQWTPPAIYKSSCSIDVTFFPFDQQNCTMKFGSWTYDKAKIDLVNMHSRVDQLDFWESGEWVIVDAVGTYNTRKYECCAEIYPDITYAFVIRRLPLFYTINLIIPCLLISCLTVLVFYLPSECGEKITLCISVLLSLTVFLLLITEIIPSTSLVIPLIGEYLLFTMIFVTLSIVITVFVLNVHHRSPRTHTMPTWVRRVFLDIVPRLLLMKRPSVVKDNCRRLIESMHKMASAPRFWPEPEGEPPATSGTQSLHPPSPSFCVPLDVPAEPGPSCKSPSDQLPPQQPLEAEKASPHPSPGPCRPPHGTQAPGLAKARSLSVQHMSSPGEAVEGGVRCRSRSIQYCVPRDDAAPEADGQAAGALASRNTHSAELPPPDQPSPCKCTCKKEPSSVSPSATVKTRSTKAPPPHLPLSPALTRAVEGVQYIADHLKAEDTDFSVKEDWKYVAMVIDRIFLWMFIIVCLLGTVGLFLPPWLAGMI
Chain of Cannabinoid receptor 1 (P21554 whole entry): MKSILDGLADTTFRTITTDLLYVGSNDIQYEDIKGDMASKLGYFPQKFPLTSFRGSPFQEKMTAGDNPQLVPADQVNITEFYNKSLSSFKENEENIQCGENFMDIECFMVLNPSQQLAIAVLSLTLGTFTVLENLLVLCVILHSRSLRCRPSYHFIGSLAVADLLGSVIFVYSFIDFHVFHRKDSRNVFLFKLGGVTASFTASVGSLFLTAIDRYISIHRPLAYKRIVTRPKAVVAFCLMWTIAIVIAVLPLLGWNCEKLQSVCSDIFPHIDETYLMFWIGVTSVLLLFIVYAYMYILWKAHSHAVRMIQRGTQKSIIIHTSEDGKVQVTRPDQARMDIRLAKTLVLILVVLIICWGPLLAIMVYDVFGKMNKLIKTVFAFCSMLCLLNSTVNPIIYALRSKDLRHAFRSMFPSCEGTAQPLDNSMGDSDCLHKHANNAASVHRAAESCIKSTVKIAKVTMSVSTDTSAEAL
T4 sequence (P62813 whole entry): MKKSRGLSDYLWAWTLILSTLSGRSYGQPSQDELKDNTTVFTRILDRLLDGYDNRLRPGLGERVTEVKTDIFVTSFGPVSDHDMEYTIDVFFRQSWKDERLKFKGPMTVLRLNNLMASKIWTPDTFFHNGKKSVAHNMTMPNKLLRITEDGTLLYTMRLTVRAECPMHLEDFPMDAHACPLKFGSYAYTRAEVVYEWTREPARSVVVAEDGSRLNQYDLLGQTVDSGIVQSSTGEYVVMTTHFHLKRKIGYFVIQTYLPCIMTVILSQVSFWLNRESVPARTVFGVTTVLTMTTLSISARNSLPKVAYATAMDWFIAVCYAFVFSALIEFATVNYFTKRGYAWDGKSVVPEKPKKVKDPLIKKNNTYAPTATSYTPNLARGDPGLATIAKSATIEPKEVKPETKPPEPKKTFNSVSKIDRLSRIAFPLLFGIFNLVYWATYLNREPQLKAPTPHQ

In the case of `COc1ccc(-c2cc(=S)ss2)cc1` [ANETHOLTRITHION], the AC50 in assay [1] was more than 30 µM; on B2 bradykinin receptor, more than 30 µM; in [2], more than 30 µM; in [3], more than 10 µM; in [4], 9.2 µM; on Cannabinoid receptor 1 it was more than 30 µM. Further, the AC50 in assay [5] is more than 30 µM; in assay [6], more than 30 µM; in [7] it was more than 30 µM; in assay [8], more than 30 µM; at Melanocortin receptor 3, 18 µM; in assay [9] it was 10 µM. For the same compound, the results for the AC50 (in assay [10]; on Histamine H3 receptor) were more than 30 µM and more than 10 µM, respectively.

`C[C@]12CCC(=O)C=C1C=C[C@@H]1[C@@H]2CC[C@@]2(C)[C@H]1CC[C@@]21CCC(=O)O1` [CANRENONE]: the AC50 (in assay [1]; on B2 bradykinin receptor; in [2]; in [3]; in assay [4]; on Cannabinoid receptor 1) was more than 30 µM each time. The AC50 (in assay [5]; in assay [6]; in [7]; in assay [8]; on Melanocortin receptor 3; in [9]) was more than 30 µM each time. In addition, the AC50 (in [10]; on Histamine H3 receptor) was more than 30 µM throughout.

Take `CN(C)CCC(O)(c1ccccc1)c1ccccc1Cl` (stereo not drawn) [CHLOPHEDIANOL]: the AC50 was more than 10 µM in [1]; more than 10 µM at B2 bradykinin receptor; more than 10 µM in assay [2]; more than 10 µM in assay [3]; more than 10 µM in [4]; more than 30 µM at Cannabinoid receptor 1. Also, the AC50 is more than 10 µM in assay [5]; more than 10 µM in [6]; more than 10 µM in assay [7]; 8.3 µM in [8]; more than 10 µM at Melanocortin receptor 3; more than 10 µM in assay [9]. Further, the AC50 in [10] is more than 30 µM; on Histamine H3 receptor, more than 10 µM.

In the case of `C[C@]12C=CC(=O)C=C1C(Cl)=C[C@@H]1[C@@H]2[C@@H](O)C[C@@]2(C)[C@H]1CC[C@]2(O)C(=O)CO` [CLOPREDNOL], the AC50 in [1] was more than 30 µM; at B2 bradykinin receptor it was more than 3 µM; in assay [3], more than 30 µM; in assay [4], more than 30 µM; on Cannabinoid receptor 1 it was more than 30 µM; in assay [5], more than 30 µM. Further, the AC50 in assay [6] is more than 30 µM; in assay [7], more than 30 µM; in assay [8], 8.7 µM; on Melanocortin receptor 3, more than 30 µM; in assay [9], more than 30 µM; in assay [10] it was more than 30 µM. On Histamine H3 receptor, the AC50 was more than 30 µM.

In the case of `COc1cccc2c1C(=O)c1c(O)c3c(c(O)c1C2=O)C[C@@](O)(C(=O)CO)C[C@@H]3O[C@H]1C[C@H](N)[C@H](O)[C@H](C)O1` [DOXORUBICIN], the concentration at half-maximal activity (AC50) in [1] is more than 30 µM; on B2 bradykinin receptor, more than 30 µM; in assay [2] it was more than 10 µM; in assay [3], more than 30 µM; in assay [4] it was more than 30 µM; on Cannabinoid receptor 1, more than 30 µM. The AC50 is more than 10 µM in assay [5]; more than 10 µM in [6]; more than 10 µM in [7]; more than 30 µM in assay [8]; more than 30 µM at Melanocortin receptor 3; more than 30 µM in [9]. The AC50 (in assay [10]; at Histamine H3 receptor) was more than 30 µM in each case.

Turning to `C[C@]12CCC(=O)C=C1[C@@H]1C[C@@H]1[C@H]1[C@@H]3[C@@H]4C[C@@H]4[C@@]4(CCC(=O)O4)[C@@]3(C)CC[C@@H]12` [DROSPIRENONE], the AC50 (in [1]; at B2 bradykinin receptor; in [2]; in assay [3]; in assay [4]; in [5]) was more than 30 µM in each case. Besides, the AC50 is more than 30 µM in assay [6]; 26 µM in [7]; more than 30 µM in assay [8]; more than 30 µM at Melanocortin receptor 3; more than 30 µM in [9]; more than 30 µM in assay [10]. For the same compound, the AC50 on Histamine H3 receptor is more than 30 µM.

Regarding `CCn1c(=O)c2c(nc(/C=C/c3ccc(OC)c(OC)c3)n2C)n(CC)c1=O` [ISTRADEFYLLINE], the AC50 (in assay [1]; in assay [4]; at Melanocortin receptor 3; in assay [9]; in assay [10]) was more than 30 µM each time.

As for `CCC(=O)c1ccc2c(c1)N(CC(C)N(C)C)c1ccccc1S2` (stereo not drawn) [PROPIOMAZINE], the AC50 in assay [1] is 4.5 µM; on B2 bradykinin receptor, more than 10 µM; in assay [2], more than 10 µM; in [3] it was more than 10 µM; in assay [4], more than 10 µM; in [5] it was more than 10 µM. Moreover, the AC50 in [6] was more than 10 µM; in assay [7], more than 10 µM; in assay [8], 0.18 µM; on Melanocortin receptor 3, more than 10 µM; in assay [9], more than 10 µM; in assay [10] it was more than 30 µM. This compound also had an AC50 on Histamine H3 receptor of more than 10 µM.

As to `Cc1cn(-c2cc(NC(=O)c3ccc(C)c(Nc4nccc(-c5cnccn5)n4)c3)cc(C(F)(F)F)c2)cn1` [RADOTINIB], the AC50 in assay [1] is more than 30 µM; in assay [4], 27 µM; at Melanocortin receptor 3, more than 30 µM; in [9] it was more than 30 µM; in assay [10], 30 µM.

As to `Cc1ccc(O)c([C@H](CCN(C(C)C)C(C)C)c2ccccc2)c1` [TOLTERODINE], the AC50 was more than 10 µM in assay [1]; more than 10 µM in [2]; more than 10 µM in assay [4]; more than 30 µM at Cannabinoid receptor 1; more than 30 µM in assay [5]; more than 10 µM in [6]. Besides, the AC50 in assay [7] is more than 10 µM; in assay [8], more than 30 µM; in [9], more than 10 µM; at Histamine H3 receptor, more than 30 µM.

As for `Oc1cc(Cl)ccc1Oc1ccc(Cl)cc1Cl` [TRICLOSAN], the AC50 was more than 30 µM in assay [1]; more than 30 µM on B2 bradykinin receptor; more than 30 µM in [3]; more than 30 µM in assay [4]; more than 30 µM on Cannabinoid receptor 1; more than 10 µM in [5]. Moreover, the AC50 in [6] is more than 30 µM; in assay [7], more than 30 µM; in assay [8], more than 30 µM; at Melanocortin receptor 3, more than 30 µM; in [9], 24 µM; in assay [10], more than 30 µM. The compound further showed a half-maximal activity concentration (AC50) on Histamine H3 receptor of more than 30 µM.
